24 compounds from ChEMBL document CHEMBL1909046, “DrugMatrix in vitro pharmacology data” can be followed below.

The target in one data set is D(1A) dopamine receptor (Homo sapiens, UniProt P21728). Description: DRUGMATRIX: Dopamine D1 radioligand binding (ligand: [3H] SCH-23390). Format: cell membranes, CHO, Membrane. Conditions: Not Active = under 50% inhibition at 10 µM.
Data set [1] addresses T1, Neuropeptide Y receptor type 1 (Homo sapiens, UniProt P25929).
T1 sequence (P25929 whole entry): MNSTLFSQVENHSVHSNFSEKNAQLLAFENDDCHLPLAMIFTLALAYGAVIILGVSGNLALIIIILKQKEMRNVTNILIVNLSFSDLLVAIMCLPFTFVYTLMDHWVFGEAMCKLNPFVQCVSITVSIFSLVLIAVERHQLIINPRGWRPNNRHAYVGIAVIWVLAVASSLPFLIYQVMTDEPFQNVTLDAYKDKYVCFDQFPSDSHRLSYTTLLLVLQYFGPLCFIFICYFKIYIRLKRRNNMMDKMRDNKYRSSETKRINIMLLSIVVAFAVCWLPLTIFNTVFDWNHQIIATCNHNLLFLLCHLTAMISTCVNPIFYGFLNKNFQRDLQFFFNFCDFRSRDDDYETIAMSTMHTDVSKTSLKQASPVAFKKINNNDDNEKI
In kind it is cell membranes, Membrane. Conditions: sk-n-mc.

In data set [2] the target is T2, 5-hydroxytryptamine receptor 2C (Homo sapiens, UniProt P28335).
T2 sequence (P28335 whole entry): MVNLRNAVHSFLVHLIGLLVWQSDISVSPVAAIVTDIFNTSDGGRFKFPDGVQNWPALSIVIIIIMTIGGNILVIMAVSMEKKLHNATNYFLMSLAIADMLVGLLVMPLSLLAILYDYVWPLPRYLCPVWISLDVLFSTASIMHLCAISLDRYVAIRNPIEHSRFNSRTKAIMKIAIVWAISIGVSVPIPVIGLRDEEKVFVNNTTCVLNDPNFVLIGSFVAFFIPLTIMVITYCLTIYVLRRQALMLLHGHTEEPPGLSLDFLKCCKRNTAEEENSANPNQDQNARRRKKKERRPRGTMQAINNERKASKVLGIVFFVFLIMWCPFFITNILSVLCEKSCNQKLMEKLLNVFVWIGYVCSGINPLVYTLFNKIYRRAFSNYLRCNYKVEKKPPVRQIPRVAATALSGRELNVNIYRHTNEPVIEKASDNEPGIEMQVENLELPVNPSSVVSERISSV
Description: DRUGMATRIX: Serotonin (5-Hydroxytryptamine) 5-HT2C radioligand binding (ligand: [3H] Mesulergine). Conditions: Not Active = under 50% inhibition at 10 µM. Format: cell membranes, CHO-K1, Membrane.

The target of data set [3] is T3, 5-hydroxytryptamine receptor 1A (Rattus norvegicus, UniProt P19327). Also: in other assays of this panel Not Active means under 50% inhibition at 10 µM.
T3 sequence (P19327 whole entry): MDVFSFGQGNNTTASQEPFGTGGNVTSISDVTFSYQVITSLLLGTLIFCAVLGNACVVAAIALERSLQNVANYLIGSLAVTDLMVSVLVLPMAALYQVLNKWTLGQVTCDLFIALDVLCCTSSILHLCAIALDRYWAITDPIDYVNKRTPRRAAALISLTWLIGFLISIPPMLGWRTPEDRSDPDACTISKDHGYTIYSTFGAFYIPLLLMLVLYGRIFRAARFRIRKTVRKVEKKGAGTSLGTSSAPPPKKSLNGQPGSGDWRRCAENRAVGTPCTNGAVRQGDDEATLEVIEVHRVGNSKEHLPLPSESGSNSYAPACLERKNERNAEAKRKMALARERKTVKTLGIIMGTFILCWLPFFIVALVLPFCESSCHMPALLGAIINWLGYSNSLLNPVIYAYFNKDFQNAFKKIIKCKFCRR
Format: cell membranes, CHO-K1, Membrane.

The next data set has as its target Cytochrome P450 2D6 (Homo sapiens, UniProt P10635). Conditions: bti-tn-5b1-4. Also: in other assays of this panel Not Active means under 50% inhibition at 10 µM.
The target of the next data set is Mu-type opioid receptor (Homo sapiens, UniProt P35372). Put plainly: DRUGMATRIX: Opiate mu (OP3, MOP) radioligand binding (ligand: [3H] Diprenorphine). In kind it is cell membranes, CHO-K1, Membrane. Conditions: cho-k1; Not Active = under 50% inhibition at 10 µM.
Sequence of Mu-type opioid receptor (P35372 whole entry): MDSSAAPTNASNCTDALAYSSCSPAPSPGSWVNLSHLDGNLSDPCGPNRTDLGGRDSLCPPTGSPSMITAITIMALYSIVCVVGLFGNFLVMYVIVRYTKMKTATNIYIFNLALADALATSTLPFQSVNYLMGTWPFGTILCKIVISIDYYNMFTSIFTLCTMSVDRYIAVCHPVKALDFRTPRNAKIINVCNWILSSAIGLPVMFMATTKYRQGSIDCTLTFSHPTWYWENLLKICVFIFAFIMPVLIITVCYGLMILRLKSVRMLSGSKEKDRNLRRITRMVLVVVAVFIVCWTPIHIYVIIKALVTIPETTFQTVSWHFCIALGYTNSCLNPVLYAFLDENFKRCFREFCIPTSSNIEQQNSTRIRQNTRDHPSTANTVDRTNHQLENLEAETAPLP

Sequence of D(1A) dopamine receptor (P21728 whole entry): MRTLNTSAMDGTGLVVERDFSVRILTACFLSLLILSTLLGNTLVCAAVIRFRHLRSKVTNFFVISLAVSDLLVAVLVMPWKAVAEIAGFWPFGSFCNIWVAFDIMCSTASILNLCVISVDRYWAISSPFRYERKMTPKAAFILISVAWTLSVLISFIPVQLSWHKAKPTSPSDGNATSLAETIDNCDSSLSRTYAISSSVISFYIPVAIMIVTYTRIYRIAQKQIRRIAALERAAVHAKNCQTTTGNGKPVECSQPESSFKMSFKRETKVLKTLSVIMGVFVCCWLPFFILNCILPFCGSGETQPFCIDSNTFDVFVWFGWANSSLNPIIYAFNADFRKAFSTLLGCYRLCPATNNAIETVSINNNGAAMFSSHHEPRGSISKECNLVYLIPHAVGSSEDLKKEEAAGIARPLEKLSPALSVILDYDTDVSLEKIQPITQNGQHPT
Sequence of Cytochrome P450 2D6 (P10635 whole entry): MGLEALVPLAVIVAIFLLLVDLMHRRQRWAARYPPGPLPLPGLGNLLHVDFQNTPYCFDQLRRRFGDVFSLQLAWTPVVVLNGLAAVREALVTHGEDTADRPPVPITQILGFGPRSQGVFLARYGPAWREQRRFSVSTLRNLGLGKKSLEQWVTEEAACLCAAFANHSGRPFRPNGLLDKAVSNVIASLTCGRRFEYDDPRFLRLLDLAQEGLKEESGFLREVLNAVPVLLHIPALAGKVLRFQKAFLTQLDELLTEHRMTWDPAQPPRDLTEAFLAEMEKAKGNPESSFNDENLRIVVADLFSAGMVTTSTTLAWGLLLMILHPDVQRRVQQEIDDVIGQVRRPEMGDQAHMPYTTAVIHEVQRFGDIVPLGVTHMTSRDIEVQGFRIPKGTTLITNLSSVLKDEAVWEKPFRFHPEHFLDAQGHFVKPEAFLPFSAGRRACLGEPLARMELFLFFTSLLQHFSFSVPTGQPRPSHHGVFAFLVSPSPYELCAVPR

For `COc1ccc(C[C@H]2NC[C@H](O)[C@H]2OC(C)=O)cc1` [ANISOMYCIN], the IC50 result (at D(1A) dopamine receptor (cho); in data set [1]; in data set [2] (cho-k1); in data set [3] (cho-k1); against Cytochrome P450 2D6) was “Not Active” in each case. For the same compound, the Ki result (at D(1A) dopamine receptor (cho); in data set [1]; in data set [2] (cho-k1); in data set [3] (cho-k1); at Cytochrome P450 2D6) was “Not Active” throughout.
On to `CN(C)CCCN1c2ccccc2Sc2ccc(Cl)cc21` [CHLORPROMAZINE], for which the IC50 (as a rule, the point on the concentration scale where inhibition reaches its midpoint) in data set [1] is “Not Active”; in data set [3] (read-out: IC50), 4.68 µM. In data set [3] (read-out: Ki), the Ki (commonly a dissociation constant, usually derived from enzyme kinetics or from competition with a known ligand) worked out at 2.68 µM.
Take LEAD (II) ACETATE: the IC50 result (at D(1A) dopamine receptor (cho); in data set [1]; in data set [2] (cho-k1); in data set [3] (cho-k1); against Cytochrome P450 2D6) was “Not Active” in each case. In addition, the Ki result (on D(1A) dopamine receptor (cho); in data set [1]; in data set [2] (cho-k1); in data set [3] (cho-k1); on Cytochrome P450 2D6) was “Not Active” in each case.
As to `Cc1ccc(-c2cc(C(F)(F)F)nn2-c2ccc(S(N)(=O)=O)cc2)cc1` [CELECOXIB], the IC50 is 28 µM at D(1A) dopamine receptor (read-out: IC50); “Not Active” in data set [1]; “Not Active” in data set [2] (cho-k1); “Not Active” on Mu-type opioid receptor; “Not Active” in data set [3] (cho-k1). On D(1A) dopamine receptor (read-out: Ki), the Ki was determined as 14 µM.
In the case of `CCCN1C[C@H](CSC)C[C@@H]2c3cccc4[nH]cc(c34)C[C@H]21` [PERGOLIDE], the IC50 entry (in data set [1]; on Mu-type opioid receptor) was “Not Active” throughout.
In the case of LIPOPOLYSACCHARIDE E. COLI O55:B5, the IC50 entry (on D(1A) dopamine receptor (cho); in data set [1]; in data set [2] (cho-k1); in data set [3] (cho-k1); at Cytochrome P450 2D6) was “Not Active” in each case. Further, the Ki result (on D(1A) dopamine receptor (cho); in data set [1]; in data set [2] (cho-k1); in data set [3] (cho-k1); at Cytochrome P450 2D6) was “Not Active” throughout.
With `Nc1c(Br)cc(Br)cc1CN[C@H]1CC[C@H](O)CC1` [AMBROXOL], the IC50 result (on D(1A) dopamine receptor (cho); in data set [1]; in data set [2] (cho-k1); at Mu-type opioid receptor; in data set [3] (cho-k1)) was “Not Active” throughout.
Take `CC(C)(C)NCC(O)c1cc(Cl)c(N)c(Cl)c1` (stereo not given) [CLENBUTEROL]: the IC50 entry was “Not Active” on D(1A) dopamine receptor (cho); “Not Active” in data set [1]; “Not Active” in data set [2] (cho-k1); 2.65 µM in data set [3] (read-out: IC50); “Not Active” on Cytochrome P450 2D6. In addition, the Ki in data set [3] (read-out: Ki) was 1.52 µM; on Cytochrome P450 2D6, “Not Active”.
With `Cc1ccc(N(CC2=NCCN2)c2cccc(O)c2)cc1` [PHENTOLAMINE], the IC50 result (at D(1A) dopamine receptor (cho); in data set [1]; on Mu-type opioid receptor; in data set [3] (cho-k1)) was “Not Active” each time.
Regarding `C[C@]12CC[C@@H]3c4ccc(O)cc4CC[C@H]3[C@@H]1CCC2=O` [ESTRONE], the IC50 result (at D(1A) dopamine receptor (cho); in data set [1]; in data set [2] (cho-k1); at Mu-type opioid receptor; in data set [3] (cho-k1)) was “Not Active” each time.
As for `CN(C)C(=O)Oc1cc(OC(=O)N(C)C)cc(C(O)CNC(C)(C)C)c1` (stereo not given) [BAMBUTEROL], the IC50 result (at D(1A) dopamine receptor (cho); in data set [1]; in data set [2] (cho-k1); on Mu-type opioid receptor; in data set [3] (cho-k1)) was “Not Active” in each case.
Take `CC1(C)S[C@@H]2[C@H](NC(=O)Cc3ccccc3)C(=O)N2[C@H]1C(=O)O` [PENICILLIN G]: the IC50 entry (at D(1A) dopamine receptor (cho); in data set [1]; in data set [2] (cho-k1); on Mu-type opioid receptor; in data set [3] (cho-k1)) was “Not Active” in each case.
As for `Cc1ccc2cc3c(ccc4ccccc43)c3c2c1CC3` [3-METHYLCHOLANTHRENE], the half-inhibitory concentration (IC50) result (on D(1A) dopamine receptor (cho); in data set [1]; in data set [2] (cho-k1); in data set [3] (cho-k1); against Cytochrome P450 2D6) was “Not Active” throughout. The Ki entry at Cytochrome P450 2D6 is given as “Not Active”.
For the compound `O=C(O)CCCc1ccc(N(CCCl)CCCl)cc1` [CHLORAMBUCIL], the IC50 result (at D(1A) dopamine receptor (cho); in data set [1]; in data set [2] (cho-k1); in data set [3] (cho-k1); against Cytochrome P450 2D6) was “Not Active” each time. Further, the Ki result on Cytochrome P450 2D6 is recorded as “Not Active”.
As for `C1CCC(C(CC2CCCCN2)C2CCCCC2)CC1` (stereo not given) [PERHEXILINE], the half-inhibitory concentration (IC50) entry (at D(1A) dopamine receptor (cho); in data set [1]; in data set [2] (cho-k1); on Mu-type opioid receptor; in data set [3] (cho-k1)) was “Not Active” each time.
Regarding `CC(C)CN(C[C@@H](O)[C@H](Cc1ccccc1)NC(=O)O[C@H]1CCOC1)S(=O)(=O)c1ccc(N)cc1`, the IC50 result (on D(1A) dopamine receptor (cho); in data set [1]; in data set [2] (cho-k1); on Mu-type opioid receptor; in data set [3] (cho-k1)) was “Not Active” each time.
In the case of `CN(C)CCCN1c2ccccc2Sc2ccccc21` [PROMAZINE], the IC50 on D(1A) dopamine receptor (read-out: IC50) was 2.46 µM; in data set [1], “Not Active”; in data set [2] (read-out: IC50), 0.099 µM; on Mu-type opioid receptor, “Not Active”; in data set [3] (read-out: IC50), 5.17 µM. The Ki on D(1A) dopamine receptor (read-out: Ki) was 1.23 µM; in data set [2] (read-out: Ki) it was 0.052 µM; in data set [3] (read-out: Ki) it was 2.96 µM.
Consider `Cc1ccc(/N=C/N(C)/C=N/c2ccc(C)cc2C)c(C)c1` [AMITRAZ], for which the IC50 result (at D(1A) dopamine receptor (cho); in data set [1]; in data set [2] (cho-k1); in data set [3] (cho-k1); at Cytochrome P450 2D6) was “Not Active” throughout. In addition, the Ki result on Cytochrome P450 2D6 is “Not Active”.
Regarding `CN(C)c1nc(N(C)C)nc(N(C)C)n1` [ALTRETAMINE], the IC50 entry (on D(1A) dopamine receptor (cho); in data set [1]; in data set [2] (cho-k1); on Mu-type opioid receptor; in data set [3] (cho-k1)) was “Not Active” in each case.
CADMIUM ACETATE: the IC50 entry (on D(1A) dopamine receptor (cho); in data set [1]; in data set [2] (cho-k1); in data set [3] (cho-k1); against Cytochrome P450 2D6) was “Not Active” throughout. The Ki result (on D(1A) dopamine receptor (cho); in data set [1]; in data set [2] (cho-k1); in data set [3] (cho-k1); on Cytochrome P450 2D6) was “Not Active” in each case.
Consider `CN(Cc1ccc(C(C)(C)C)cc1)Cc1cccc2ccccc12` [BUTENAFINE], for which the IC50 result (on D(1A) dopamine receptor (cho); in data set [1]; in data set [2] (cho-k1); at Mu-type opioid receptor; in data set [3] (cho-k1)) was “Not Active” in each case.
Consider `CC1=C2C(=CO[C@H](C)[C@H]2C)C(O)=C(C(=O)O)C1=O` [CITRININ], for which the concentration for half-maximal inhibition (IC50) entry (on D(1A) dopamine receptor (cho); in data set [1]; in data set [2] (cho-k1); in data set [3] (cho-k1); against Cytochrome P450 2D6) was “Not Active” each time. In addition, the Ki result on Cytochrome P450 2D6 is recorded as “Not Active”.
As to `CCCCN1CCCC[C@H]1C(=O)Nc1c(C)cccc1C` [LEVOBUPIVACAINE], the IC50 result (on D(1A) dopamine receptor (cho); in data set [1]; in data set [2] (cho-k1); at Mu-type opioid receptor; in data set [3] (cho-k1)) was “Not Active” each time.
Consider `COc1cc2nc(N3CCN(C(=O)C4COc5ccccc5O4)CC3)nc(N)c2cc1OC` (stereo not given) [DOXAZOSIN], for which the half-inhibitory concentration (IC50) result (at D(1A) dopamine receptor (cho); in data set [1]; on Mu-type opioid receptor; in data set [3] (cho-k1); on Cytochrome P450 2D6) was “Not Active” in each case. Also, on Cytochrome P450 2D6, the Ki result is recorded as “Not Active”.
